What was measured:
Assay type in all cases: cell-based, human
[1] = tested on: HepG2 NF-κB/Luc/sr39tk cells; assay: 131I-FIAU uptake experiment in co-transformed HepG2 NF-κB/Luc/sr39tk cells; settings: reacted 2 h
Experimental: (§1) This experiment is provided to analyze uptake of 131I-FIAU drug by HepG2 NF-κB/Luc/sr39tk transformed cells. HepG2 NF-κB/Luc/sr39tk transformed cells were cultured overnight in a 6-well plate at 1×10^6 cells/well to attach the cells onto the plate. Then, 1 ml/well of labeled ^131I-FIAU was added into the cells and reacted for 2 h, and then the cells was washed with ice-cold PBS to quench the drug reaction, and detected for radioactivity. FIG. 4 is uptake effect of ^131I-FIAU in HepG2 NF-κB/Luc/sr39tk cell, in which X axis represents different transformed cell line; and Y axis is uptake amount of ^131I-FIAU per 0.1 million cells.

HepG2 NF-κB/Luc cells = assay: 131I-FIAU uptake experiment in HepG2 NF-κB/Luc cells; settings: reacted 2 h
Experimental: as §1

HepG2 cells = assay: 131I-FIAU uptake experiment in HepG2 cells; settings: reacted 2 h
Experimental: as §1

[2] = tested on: HepG2 NF-κB/Luc/sr39tk cells; assay: Cytotoxic effect of GCV on HepG2 NF-κB/Luc/sr39tk cells (WST-1 cell survival); settings: GCV 0.001-500 μM, 96 h
Experimental: HepG2 NF-κB/luc/sr39tk was cultured at 3000 cells/well in 96 well plate format to attach the cells onto the plate, then drug-treated for 48 h with different concentrations of GCV at 0.001, 0.01, 0.1, 1, 50, 100 and 500 μM respectively, and then treated with fresh culture media containing GCV drug, and after 96 h of experiment, the culture media containing GCV drug was removed, then chromogenic reaction was carried out with WST-1 at 37° C. for 2 h, and finally analyzed by enzyme-linked immunosorbent assay (ELISA) at wavelengths of 450 nm and 620 nm respectively and plotted to obtain cell survival rate for calculation of cytotoxic effect of drug.

SMILES	uptake amount of 131I-FIAU per 0.1 million cells ([1]; 1—17 cell line) [%]	uptake amount of 131I-FIAU per 0.1 million cells ([1]; 1—18 cell line) [%]	uptake amount of 131I-FIAU per 0.1 million cells ([1]; 1—34 cell line) [%]	uptake amount of 131I-FIAU per 0.1 million cells ([1]; 2—24 cell line) [%]	uptake amount of 131I-FIAU per 0.1 million cells ([1]; 2—27 cell line) [%]	uptake efficiency for 131I-FIAU (HepG2 NF-κB/Luc cells)	uptake efficiency for 131I-FIAU (HepG2 cells)	cytotoxic effect (cell survival rate) compared with control group (HepG2) ([2]; 1—18 cell line)	cytotoxic effect (cell survival rate) compared with control group (HepG2) ([2]; 2—24 cell line)
O=c1[nH]c(=O)n([C@@H]2O[C@H](CO)[C@@H](O)[C@@H]2F)cc1[131I] [131I-FIAU]	20.1±0.41	41.5±1.00	27.2±1.07	22.9±0.68	12.9±0.45	very low uptake efficiency	very low uptake efficiency	–	–
Nc1nc(O)c2ncn(COC(CO)CO)c2n1 [GCV, ganciclovir]	–	–	–	–	–	–	–	obvious cytotoxic effect	obvious cytotoxic effect

— patent US20120295349A1, “MAMMAL DEDICATED CELL LINE FROM HUMAN HEPATOCELLULAR CARCINOMA CELL” (Institute of Nuclear Energy Research Atomic Energy Council, …, priority 2009, published 2012)
